IC50 data for three compounds are collected here from article PMC4289911, “[^68Ga]FSC-(RGD)3 a trimeric RGD peptide for imaging αvβ3 integrin expression based on a novel siderophore derived chelating scaffold—synthesis and evaluation” (Nuclear Medicine and Biology, 2015).

By IC50 is commonly meant the concentration that gives 50% inhibition.

Where two headings read alike, the source gives them in different places.

In assay [1] the target is T1, αvβ3 integrin (Homo sapiens, UniProt P05106+P06756).
T1 construct: purchased Millipore-Chemicon, Temecula, CA, USA
T1 sequence (P06756 31-889 limits assumed): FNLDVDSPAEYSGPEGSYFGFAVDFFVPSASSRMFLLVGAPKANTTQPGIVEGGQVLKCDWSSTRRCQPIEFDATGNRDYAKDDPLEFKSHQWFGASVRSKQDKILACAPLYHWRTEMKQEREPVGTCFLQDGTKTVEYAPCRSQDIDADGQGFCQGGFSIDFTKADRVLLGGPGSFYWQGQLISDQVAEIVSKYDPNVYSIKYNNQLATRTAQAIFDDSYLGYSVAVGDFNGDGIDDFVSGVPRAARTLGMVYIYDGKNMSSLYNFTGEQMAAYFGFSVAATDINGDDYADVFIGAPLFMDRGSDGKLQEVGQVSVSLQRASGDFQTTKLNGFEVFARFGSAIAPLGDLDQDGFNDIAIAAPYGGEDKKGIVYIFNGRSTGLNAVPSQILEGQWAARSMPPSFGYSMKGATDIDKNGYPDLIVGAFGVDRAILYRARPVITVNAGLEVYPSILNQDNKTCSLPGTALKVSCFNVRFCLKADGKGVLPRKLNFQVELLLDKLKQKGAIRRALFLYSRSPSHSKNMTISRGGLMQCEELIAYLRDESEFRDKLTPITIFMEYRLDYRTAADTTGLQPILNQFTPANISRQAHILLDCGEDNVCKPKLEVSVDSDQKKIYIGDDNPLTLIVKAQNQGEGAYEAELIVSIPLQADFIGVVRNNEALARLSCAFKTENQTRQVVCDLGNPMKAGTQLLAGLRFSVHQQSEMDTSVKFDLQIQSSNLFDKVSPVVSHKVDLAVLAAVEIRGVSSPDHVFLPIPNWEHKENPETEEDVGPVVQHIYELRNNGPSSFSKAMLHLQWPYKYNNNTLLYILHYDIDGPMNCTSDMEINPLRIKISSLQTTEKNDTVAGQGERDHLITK
T1 sequence (P06756 891-1048 partner limits assumed): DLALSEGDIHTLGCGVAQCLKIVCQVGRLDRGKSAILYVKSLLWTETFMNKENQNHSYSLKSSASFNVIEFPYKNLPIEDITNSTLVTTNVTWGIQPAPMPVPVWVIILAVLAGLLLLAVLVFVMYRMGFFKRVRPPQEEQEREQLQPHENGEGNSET
T1 sequence (P05106 27-788): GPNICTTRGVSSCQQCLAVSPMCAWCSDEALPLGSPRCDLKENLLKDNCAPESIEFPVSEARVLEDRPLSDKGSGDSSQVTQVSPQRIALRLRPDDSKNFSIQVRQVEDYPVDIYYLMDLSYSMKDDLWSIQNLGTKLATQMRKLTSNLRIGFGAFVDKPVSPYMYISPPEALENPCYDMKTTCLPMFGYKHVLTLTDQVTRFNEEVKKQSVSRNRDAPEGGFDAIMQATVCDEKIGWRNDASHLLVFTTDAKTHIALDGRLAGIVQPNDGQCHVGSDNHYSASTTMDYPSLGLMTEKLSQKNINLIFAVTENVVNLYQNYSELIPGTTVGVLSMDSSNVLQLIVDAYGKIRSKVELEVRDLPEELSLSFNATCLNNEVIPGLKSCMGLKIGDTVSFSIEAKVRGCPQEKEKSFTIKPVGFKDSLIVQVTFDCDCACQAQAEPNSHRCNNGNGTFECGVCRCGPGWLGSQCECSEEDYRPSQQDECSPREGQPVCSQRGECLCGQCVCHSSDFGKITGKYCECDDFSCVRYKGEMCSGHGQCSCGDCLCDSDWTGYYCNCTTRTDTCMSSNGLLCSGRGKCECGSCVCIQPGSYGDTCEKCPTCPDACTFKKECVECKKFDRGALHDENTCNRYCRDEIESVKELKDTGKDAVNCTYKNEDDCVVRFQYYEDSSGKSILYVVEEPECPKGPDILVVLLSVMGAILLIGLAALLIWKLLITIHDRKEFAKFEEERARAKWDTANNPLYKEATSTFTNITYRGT
Particulars: comparison value; read-out: IC50, binding affinity for αvβ3 integrin; cited from earlier work. The text has this: A high binding affinity to the isolated αvβ3 integrin for [^68Ga]FSC-(RGD)3 was found. […] A remarkable enhancement of internalized activity in comparison to [^68Ga]NODAGA-RGD or other monomeric RGD derivatives, [16] was observed. Moreover, ...

The target in assay [2] is T1, αvβ3 integrin. Kind of assay: Binding affinity for immobilized αvβ3 integrin, displacement of [125I]c(RGDyV). Particulars: isolated αvβ3 integrin coated on 96-well plates, radioligand [125I]c(RGDyV), 0.001 to 100 nM peptide, three independent measurements. Here is the method:
In vitro binding affinities of FSC-(RGD)3 and cyclo(-Arg-Gly-Asp-DTyr-Val-) (c(RGDyV)) as control were determined by using isolated αvβ3 integrin (Millipore-Chemicon, Temecula, CA, USA) and ^125I labeled c(RGDyV) as radioligand. The detailed procedure can be found in [16]. Briefly, 96-well plates (Nunc, Thermo Fisher Scientific, Vienna, Austria) were coated for 16 hours at 4 °C with the αvβ3 integrin. Subsequently, the immobilized receptors were incubated with [^125I]c(RGDyV) and increasing concentrations of the corresponding peptide ranging from 0.001 to 100 nM. The unbound fraction of radioligand was washed out, and receptor bound activity was obtained treating the wells with sodium hydroxide (NaOH) solution (2 M). IC50 values were determined by fitting the percent inhibition using OriginPro 8.5 software (Northhampton, MA, USA). Three independent measurements were made.
(Loss of bound radioactivity is the signal in a displacement assay; it reports binding, not function.)

On to “[^68Ga]NODAGA-RGD: established monomeric 68Ga-labeled RGD peptide”, for which the concentration for half-maximal inhibition (IC50) with αvβ3 integrin [1] was 4.7 nM. Turning to `C/C1=C/C(=O)N(O)CCC[C@H](NC(=O)CCC(=O)NCCCC[C@@H]2NC(=O)[C@@H](Cc3ccccc3)NC(=O)[C@H](CC(=O)O)NC(=O)CNC(=O)[C@H](CCCNC(=N)N)NC2=O)C(=O)OCC/C(C)=C\C(=O)N(O)CCC[C@H](NC(=O)CCC(=O)NCCCC[C@@H]2NC(=O)[C@@H](Cc3ccccc3)NC(=O)[C@H](CC(=O)O)NC(=O)CNC(=O)[C@H](CCCNC(=N)N)NC2=O)C(=O)OCC/C(C)=C\C(=O)N(O)CCC[C@H](NC(=O)CCC(=O)NCCCC[C@@H]2NC(=O)[C@@H](Cc3ccccc3)NC(=O)[C@H](CC(=O)O)NC(=O)CNC(=O)[C@H](CCCNC(=N)N)NC2=O)C(=O)OCC1` [FSC-(RGD)3], the concentration for half-maximal inhibition (IC50) at αvβ3 integrin [2] was 1.8 ± 0.6 nM.

Turning to `CC(C)[C@@H]1NC(=O)[C@@H](Cc2ccc(O)cc2)NC(=O)[C@H](CC(=O)O)NC(=O)CNC(=O)[C@H](CCCNC(=N)N)NC1=O` [c(RGDyV), cyclo(-Arg-Gly-Asp-DTyr-Val-)], the half-inhibitory concentration (IC50) on αvβ3 integrin [2] came out at 3.2 ± 1.2 nM.
